In patent publication US10023570B2 (Array BioPharma, Inc., priority 2015, dated 2018):
pIC50: −log10 of the molar value. Counter-ions that a name gives are not always drawn. Like-named read-outs stand apart in the source and are kept apart here.

Assays:
[1] = molecular target: N-terminal GST tagged recombinant human RET cytoplasmic domain (aa 658-end), wild type RET kinase (Homo sapiens (Human), UniProt P07949); test: RET Enzyme Assay (HTRF KinEASE-TK), wild type RET; type: biochemical
[2] = molecular target: Kif5b-RET fusion protein in HEK-293 cells (Homo sapiens, UniProt P07949); test: cell-based; conditions: read-out: KIF5B-RET pTYR1062 Cell IC50
[3] = molecular target: human KDR protein in HEK-293 cells (Homo sapiens (Human), UniProt P35968); test: KDR Cell Assay (phospho-KDR in HEK-293 cells expressing inducible KDR); type: cell-based; conditions: pKDR Cell HEK 10% FBS IC50, HEK-293 cells expressing inducible KDR, VEGF stimulated
Outline: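 HEK-293 cells with inducible human KDR were treated with compound for 1 h in DMEM (0.25% DMSO final), then lysed. Phospho-KDR was quantified by Meso Scale immunoassay, expressed as percent of control, and IC50 taken where a 4-parameter logistic fit crossed 50 POC.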

[4] = HEK-293 cells expressing Kif5b-RET
[5] = HEK-293 cells expressing Kif5b-RET, phospho-RET(Tyr1062)

Sequence of human KDR protein in HEK-293 cells (P35968 20-1356): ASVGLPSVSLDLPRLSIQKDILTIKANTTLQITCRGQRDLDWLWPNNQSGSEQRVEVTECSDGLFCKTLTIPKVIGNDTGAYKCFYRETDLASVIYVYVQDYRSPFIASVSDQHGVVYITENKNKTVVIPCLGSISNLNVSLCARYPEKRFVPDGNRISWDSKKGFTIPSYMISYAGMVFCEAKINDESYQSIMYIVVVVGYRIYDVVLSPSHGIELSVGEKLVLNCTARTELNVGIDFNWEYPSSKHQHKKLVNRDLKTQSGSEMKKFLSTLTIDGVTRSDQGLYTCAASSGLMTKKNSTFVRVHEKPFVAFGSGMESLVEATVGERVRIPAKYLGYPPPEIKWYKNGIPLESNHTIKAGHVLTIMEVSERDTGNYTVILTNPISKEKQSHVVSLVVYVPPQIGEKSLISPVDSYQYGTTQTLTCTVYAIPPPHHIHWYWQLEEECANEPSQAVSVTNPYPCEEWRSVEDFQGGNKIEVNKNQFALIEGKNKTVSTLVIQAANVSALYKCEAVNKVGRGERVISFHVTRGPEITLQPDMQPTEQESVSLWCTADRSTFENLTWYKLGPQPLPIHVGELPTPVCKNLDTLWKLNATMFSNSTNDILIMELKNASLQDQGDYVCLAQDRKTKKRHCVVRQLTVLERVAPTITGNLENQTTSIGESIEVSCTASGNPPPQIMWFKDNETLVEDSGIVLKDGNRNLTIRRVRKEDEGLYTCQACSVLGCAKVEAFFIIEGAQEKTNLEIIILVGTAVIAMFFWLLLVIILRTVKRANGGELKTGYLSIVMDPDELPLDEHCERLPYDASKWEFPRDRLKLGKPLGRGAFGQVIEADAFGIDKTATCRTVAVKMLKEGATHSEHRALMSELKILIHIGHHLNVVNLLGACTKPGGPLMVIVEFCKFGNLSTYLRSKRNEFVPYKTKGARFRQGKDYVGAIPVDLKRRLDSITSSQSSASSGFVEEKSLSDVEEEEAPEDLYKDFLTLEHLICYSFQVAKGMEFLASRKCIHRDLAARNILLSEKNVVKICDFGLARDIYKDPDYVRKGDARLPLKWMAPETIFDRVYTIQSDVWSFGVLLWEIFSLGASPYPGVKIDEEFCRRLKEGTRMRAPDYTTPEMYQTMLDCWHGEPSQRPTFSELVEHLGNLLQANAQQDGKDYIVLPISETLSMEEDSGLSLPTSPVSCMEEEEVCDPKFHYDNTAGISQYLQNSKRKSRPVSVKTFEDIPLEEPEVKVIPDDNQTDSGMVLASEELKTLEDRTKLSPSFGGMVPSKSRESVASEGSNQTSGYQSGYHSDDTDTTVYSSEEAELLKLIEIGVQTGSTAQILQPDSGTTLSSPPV
Sequence of N-terminal GST tagged recombinant human RET cytoplasmic domain (aa 658-end), wild type RET kinase (P07949 658-1114): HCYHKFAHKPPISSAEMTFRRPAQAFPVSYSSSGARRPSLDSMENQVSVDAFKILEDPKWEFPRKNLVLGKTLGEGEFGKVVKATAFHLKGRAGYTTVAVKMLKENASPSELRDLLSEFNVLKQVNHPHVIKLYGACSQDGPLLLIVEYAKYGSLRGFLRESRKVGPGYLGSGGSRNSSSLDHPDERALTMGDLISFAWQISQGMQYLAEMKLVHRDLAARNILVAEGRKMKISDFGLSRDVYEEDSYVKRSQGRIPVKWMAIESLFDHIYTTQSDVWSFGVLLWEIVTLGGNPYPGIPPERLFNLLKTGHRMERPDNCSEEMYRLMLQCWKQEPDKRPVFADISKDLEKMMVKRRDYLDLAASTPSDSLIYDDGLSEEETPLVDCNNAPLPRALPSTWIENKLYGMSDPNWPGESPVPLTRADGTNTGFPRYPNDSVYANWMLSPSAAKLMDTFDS
Sequence of Kif5b-RET fusion protein in HEK-293 cells (P07949 29-1114 limits assumed): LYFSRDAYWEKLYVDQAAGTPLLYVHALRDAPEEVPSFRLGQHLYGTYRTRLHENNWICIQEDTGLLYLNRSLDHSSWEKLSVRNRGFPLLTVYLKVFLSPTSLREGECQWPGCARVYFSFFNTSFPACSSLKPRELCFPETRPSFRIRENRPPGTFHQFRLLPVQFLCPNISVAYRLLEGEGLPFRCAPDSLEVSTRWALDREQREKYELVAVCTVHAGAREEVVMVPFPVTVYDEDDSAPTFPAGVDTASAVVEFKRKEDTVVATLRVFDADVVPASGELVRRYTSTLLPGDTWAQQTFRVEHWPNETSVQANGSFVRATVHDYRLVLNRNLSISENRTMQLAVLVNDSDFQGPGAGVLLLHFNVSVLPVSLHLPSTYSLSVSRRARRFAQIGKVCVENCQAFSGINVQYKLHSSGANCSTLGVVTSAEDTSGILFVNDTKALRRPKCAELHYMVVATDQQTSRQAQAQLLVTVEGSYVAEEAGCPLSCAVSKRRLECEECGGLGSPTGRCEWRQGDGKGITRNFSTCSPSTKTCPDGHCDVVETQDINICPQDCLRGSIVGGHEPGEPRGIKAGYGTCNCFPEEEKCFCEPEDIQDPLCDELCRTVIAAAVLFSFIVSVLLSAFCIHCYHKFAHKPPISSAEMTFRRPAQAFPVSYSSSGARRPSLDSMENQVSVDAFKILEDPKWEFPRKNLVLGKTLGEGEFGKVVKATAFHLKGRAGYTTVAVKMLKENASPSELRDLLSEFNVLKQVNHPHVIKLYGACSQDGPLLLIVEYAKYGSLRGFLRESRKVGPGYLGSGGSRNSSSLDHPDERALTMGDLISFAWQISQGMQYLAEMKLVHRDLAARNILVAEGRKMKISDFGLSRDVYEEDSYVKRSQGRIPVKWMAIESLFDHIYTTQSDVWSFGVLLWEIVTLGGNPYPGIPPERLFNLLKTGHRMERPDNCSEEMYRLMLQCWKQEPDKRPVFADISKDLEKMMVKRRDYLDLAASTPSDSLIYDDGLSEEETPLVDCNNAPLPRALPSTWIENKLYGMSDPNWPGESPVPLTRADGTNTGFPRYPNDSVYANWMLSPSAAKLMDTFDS

SMILES	pIC50 ([1]; wild type RET, 1 mM ATP)	pIC50 [2, 4]	pIC50 [3]	pIC50 [2, 5]	pIC50 ([3]; 10% FBS)	pIC50 [2]	pIC50 [1]
Cn1cc(-c2cc(-c3ccc(N4CCN(CCOC(C)(C)C)CC4)nc3)c3c(C#N)cnn3c2)cn1 [Example 420, 4-(6-(4-(2-(tert-butoxy)ethyl)piperazin-1-yl)pyridine-3-yl)-6-(1-methyl-1H-pyrazol-4-yl)pyrazolo[1,5-a]pyridine-3-carbonitrile]	7.96	8.25	6.10				
COC1CCN(c2ccc(-c3cc(-c4cnn(C)c4)cn4ncc(C#N)c34)cn2)CC1 [Example 198, 4-(6-(4-methoxypiperidin-1-yl)pyridin-3-yl)-6-(1-methyl-1H-pyrazol-4-yl)pyrazolo[1,5-a]pyridine-3-carbonitrile]	7.84			7.60	6.18		
Cn1cc(-c2cc(-c3ccc(N4CCN(C(=O)C(C)(C)O)CC4)nc3)c3c(C#N)cnn3c2)cn1 [Example 31, 4-(6-(4-(2-hydroxy-2-methylpropanoyl)piperazin-1-yl)pyridin-3-yl)-6-(1-methyl-1H-pyrazol-4-yl)pyrazolo[1,5-a]pyridine-3-carbonitrile]	7.44			7.12	5.59		
Cn1cc(-c2cc(-c3ccc(N4CCN(C(=O)CNC(C)(C)C)CC4)nc3)c3c(C#N)cnn3c2)cn1 [Example 22, 4-(6-(4-(2-(tert-butylamino)acetyl)piperazin-1-yl)pyridin-3-yl)-6-(1-methyl-1H-pyrazol-4-yl)pyrazolo[1,5-a]pyridine-3-carbonitrile dihydrochloride]	7.83				6.20	7.65	
C[C@@H](NC(=O)C1(C)CCN(c2ccc(-c3cc(-c4cnn(C)c4)cn4ncc(C#N)c34)cn2)CC1)C(F)(F)F [Example 253, (R)-1-(5-(3-cyano-6-(1-methyl-1H-pyrazol-4-yl)pyrazolo[1,5-a]pyridin-4-yl)pyridin-2-yl)-4-methyl-N-(1,1,1-trifluoropropan-2-yl)piperidine-4-carboxamide]	7.79			8.08	6.22		
Cn1cc(-c2cc(-c3ccc(N4CCNCC4)nc3)c3c(C#N)cnn3c2)cn1 [Example 2, 6-(1-methyl-1H-pyrazol-4-yl)-4-(6-(piperazin-1-yl)pyridin-3-yl)pyrazolo[1,5-a]pyridine-3-carbonitrile dihydrochloride]				6.96	5.97		7.71
CN(C)C(=O)CCN1CCN(c2ccc(-c3cc(-c4cnn(C)c4)cn4ncc(C#N)c34)cn2)CC1 [Example 146, 3-(4-(5-(3-cyano-6-(1-methyl-1H-pyrazol-4-yl)pyrazolo[1,5-a]pyridin-4-yl)pyridin-2-yl)piperazin-1-yl)-N,N-dimethylpropanamide 2,2,2-trifluoroacetate]	7.91				6.13	7.54	
Cn1cc(-c2cc(-c3ccc(N4CCN(C(=O)CC(C)(C)C)CC4)nc3)c3c(Cl)cnn3c2)cn1 [Example 331, 1-(4-(5-(3-chloro-6-(1-methyl-1H-pyrazol-4-yl)pyrazolo[1,5-a]pyridin-4-yl)pyridin-2-yl)piperazin-1-yl)-3,3-dimethylbutan-1-one]	7.51			6.83	5.63		
COC(CN1CCN(c2ccc(-c3cc(-c4cnn(C)c4)cn4ncc(C#N)c34)cn2)CC1)C(C)C (stereo not drawn) [Example 413, 4-(6-(4-(2-methoxy-3-methylbutyl)piperazin-1-yl)pyridin-3-yl)-6-(1-methyl-1H-pyrazol-4-yl)pyrazolo[1,5-a]pyridine-3-carbonitrile]	7.81	7.54	6.26				
Cn1cc(-c2cc(-c3ccc(N4CCN(C(=O)CN(C(=O)OC(C)(C)C)C(C)(C)C)CC4)nc3)c3c(C#N)cnn3c2)cn1 [Example 18, tert-butyl tert-butyl(2-(4-(5-(3-cyano-6-(1-methyl-1H-pyrazol-4-yl)pyrazolo[1,5-a]pyridin-4-yl)pyridin-2-yl)piperazin-1-yl)-2-oxoethyl)carbamate]	7.51			7.70	6.64		
COC(C)(C)CN1CCN(c2ccc(-c3cc(-c4cnn(C)c4)cn4ncc(C#N)c34)cn2)CC1 [Example 414, 4-(6-(4-(2-methoxy-2-methylpropyl)piperazin-1-yl)pyridin-3-yl)-6-(1-methyl-1H-pyrazol-4-yl)pyrazolo[1,5-a]pyridine-3-carbonitrile]	7.38	7.38	5.64				
CN1CCN(c2ccc(-c3cc(-c4cnn(C)c4)cn4ncc(Cl)c34)cn2)CC1 [Example 333, 3-chloro-6-(1-methyl-1H-pyrazol-4-yl)-4-(6-(4-methylpiperazin-1-yl)pyridin-3-yl)pyrazolo[1,5-a]pyridine]	7.20			6.81	5.62		
C[C@@H](CO)Cn1cc(-c2cc(-c3ccc(N4CCN(Cc5ccccc5)CC4)nc3)c3c(C#N)cnn3c2)cn1 [Example 592, (R)-4-(6-(4-benzylpiperazin-1-yl)pyridin-3-yl)-6-(1-(3-hydroxy-2-methylpropyl)-1H-pyrazol-4-yl)pyrazolo[1,5-a]pyridine-3-carbonitrile]	7.79	7.76	6.55				
CC(=O)N1CCN(c2ccc(-c3cc(-c4cnn(C)c4)cn4ncc(Cl)c34)cn2)CC1 [Example 330, 1-(4-(5-(3-chloro-6-(1-methyl-1H-pyrazol-4-yl)pyrazolo[1,5-a]pyridin-4-yl)pyridin-2-yl)piperazin-1-yl)ethanone]	7.42			7.08	6.25		
CC(C)NC(=O)CN1CCN(c2ccc(-c3cc(-c4cnn(C)c4)cn4ncc(C#N)c34)cn2)CC1 [Example 144, 2-(4-(5-(3-cyano-6-(1-methyl-1H-pyrazol-4-yl)pyrazolo[1,5-a]pyridin-4-yl)pyridin-2-yl)piperazin-1-yl)-N-isopropylacetamide 2,2,2-trifluoroacetate]				7.23	5.77		7.60
CC(C)COC1CCN(c2ccc(-c3cc(-c4cnn(C)c4)cn4ncc(C#N)c34)cn2)CC1 [Example 197, 4-(6-(4-isobutoxypiperidin-1-yl)pyridin-3-yl)-6-(1-methyl-1H-pyrazol-4-yl)pyrazolo[1,5-a]pyridine-3-carbonitrile]	7.85			7.40	5.89		

Continued by rising pIC50 ([1]; wild type RET, 1 mM ATP), values first:

pIC50 ([1]; wild type RET, 1 mM ATP)	pIC50 [2, 4]	pIC50 [3]	pIC50 [2, 5]	pIC50 ([3]; 10% FBS)	SMILES	pIC50 [2]	pIC50 [1]
7.84			7.65	6.35	CN(C)C(=O)NC1CCN(c2ccc(-c3cc(-c4cnn(C)c4)cn4ncc(C#N)c34)cn2)CC1 [Example 186, 3-(1-(5-(3-cyano-6-(1-methyl-1H-pyrazol-4-yl)pyrazolo[1,5-a]pyridin-4-yl)pyridin-2-yl)piperidin-4-yl)-1,1-dimethylurea]		
7.88	7.91	6.81			C[C@H](CO)Cn1cc(-c2cc(-c3ccc(N4CCN(Cc5ccccc5)CC4)nc3)c3c(C#N)cnn3c2)cn1 [Example 593, (S)-4-(6-(4-benzylpiperazin-1-yl)pyridine-3-yl)-6-(1-(3-hydroxy-2-methylpropyl)-1H-pyrazol-4-yl)pyrazolo[1,5-a]pyridine-3-carbonitrile]		
8.06			8.24	6.04	COC(C)CNC(=O)C1CCN(c2ccc(-c3cc(-c4cnn(C)c4)cn4ncc(C#N)c34)cn2)CC1 (stereo not drawn) [Example 239, 1-(5-(3-cyano-6-(1-methyl-1H-pyrazol-4-yl)pyrazolo[1,5-a]pyridin-4-yl)pyridin-2-yl)-N-(2-methoxypropyl) piperidine-4-carboxamide]		
8.08			8.28	7.15	Cn1cc(-c2cc(-c3ccc(N4CCN(S(=O)(=O)NC(C)(C)C)CC4)nc3)c3c(C#N)cnn3c2)cn1 [Example 137, N-(tert-butyl)-4-(5-(3-cyano-6-(1-methyl-1H-pyrazol-4-yl)pyrazolo[1,5-a]pyridin-4-yl)pyridin-2-yl)piperazine-1-sulfonamide]		
8.09			7.41	6.04	Cn1cc(-c2cc(-c3ccc(N4CCN(C(=O)CC(C)(C)C)CC4)nc3)c3c(C#N)cnn3c2)cn1 [Example 65, 4-(6-(4-(3,3-dimethylbutanoyl)piperazin-1-yl)pyridin-3-yl)-6-(1-methyl-1H-pyrazol-4-yl)pyrazolo[1,5-a]pyridine-3-carbonitrile]		
8.12			8.19	6.11	CC(C)[C@@H](O)C(=O)N1CCN(c2ccc(-c3cc(-c4cnn(C)c4)cn4ncc(C#N)c34)cn2)CC1 [Example 85, (R)-4-(6-(4-(2-hydroxy-3-methylbutanoyl)piperazin-1-yl)pyridin-3-yl)-6-(1-methyl-1H-pyrazol-4-yl)pyrazolo[1,5-a]pyridine-3-carbonitrile]		
8.19	7.58	6.13			CONC(=O)C1CCN(c2ccc(-c3cc(-c4cnn(C)c4)cn4ncc(C#N)c34)cn2)CC1 [Example 564, 1-(5-(3-cyano-6-(1-methyl-1H-pyrazol-4-yl)pyrazolo[1,5-a]pyridin-4-yl)pyridin-2-yl)-N-methoxypiperidine-4-carboxamide]		
8.21			7.80	6.08	CCONC(=O)C1CCN(c2ccc(-c3cc(-c4cnn(C)c4)cn4ncc(C#N)c34)cn2)CC1 [Example 237, 1-(5-(3-cyano-6-(1-methyl-1H-pyrazol-4-yl)pyrazolo[1,5-a]pyridin-4-yl)pyridin-2-yl)-N-ethoxypiperidine-4-carboxamide]		
